What all share (assay type): cell-based, human
One assay has as its system DLD1 cells. Nature of the assay: Migration assay (Corning BioCoat Control plates). Particulars: RVX-208 30 μm 72 hours then 15 μM. The procedure:
Cell viability and proliferation assays were carried out by means of XCELLigence technology (ACEA Biosciences, Inc.) following the manufacturer's indications. Migration and invasion assays were carried out in Corning® BioCoat™ Control plates (#354578) and Corning® BioCoat™ Matrigel plates (#354480), respectively, following the manufacturer's indications. For the rescue assays, the cells were treated for 72 hours with 30 μM apabetalone (RVX-208; Biovision). Antibodies: ABCA1 (Ab18180, Abcam. 1:500); caveolin-1 (Ab2910, Abcam. 1:1000); α-tubulin (T9026, Sigma 1:1000). The DLD1 cells correspond to a human colorectal cancer-derived adherent epithelial cell line (ATCC® CCL-221™). The stable cell lines capable of overexpressing ABCA1 were obtained by means of transduction with genetically modified lentivirus.
Following the same treatment regimen, the inventors carried out migration and invasion assays.
The same assays were repeated by replacing ApoA1 with a treatment with RVX-208. In this case, DLD1 cells were pre-treated for 72 hours before the start of the experiment with RVX-208 at a concentration of 30 μm and were subjected to a treatment with 15 μM of RVX-208 during the development of the experiments.

For another assay, the system named is DLD1_ABCA1 cells. Nature of the assay: Cell viability and proliferation assay (XCELLigence). The conditions noted are these: RVX-208 30 μm 72 hours then 15 μM; DLD1 cells overexpressing ABCA1. The procedure: FIG. 6. A) Proliferation curve in a viability assay carried out by means of XCELLigence technology. The results for the stable cell line overexpressing ABCA1 in the absence and presence of ApoA1 are shown. The cells were treated for 72 hours before the experiment with 40 μg/ml of ApoA1 and with a concentration of 20 μg/ml during acquisition. B) Migration and invasion assays. The method followed was the same as the one described in FIG. 1. (**p-value=0.003; ****p-value<0.0001). C) ABCA1 messenger RNA level (left panel) and ABCA1 protein level (right panel) in the presence and absence of treatment with ApoA1. Results are shown both for the control cells and for those cells overexpressing the transporter.
Cell viability and proliferation assays were carried out by means of XCELLigence technology (ACEA Biosciences, Inc.) following the manufacturer's indications. Migration and invasion assays were carried out in Corning® BioCoat™ Control plates (#354578) and Corning® BioCoat™ Matrigel plates (#354480), respectively, following the manufacturer's indications. […]
The inventors were able to confirm said results based on the treatment of DLD1 cells expressing ABCA1 with RVX-208 under the conditions already described in detail in Example 3. […] The levels of caveolin-1, a protein whose increased levels have been associated with increases in cell migration and invasion, were also analyzed in this experiment.

For another assay, the system named is E-cadherin. Nature of the assay: Epithelial-mesenchymal transition marker expression by quantitative PCR. The conditions noted are these: RVX-208 30 μm 72 hours then 15 μM. The procedure:
(§1) FIG. 4. A) Proliferation curve in a viability assay carried out by means of XCELLigence technology. Growth of DLD1 cells treated with DMSO as the drug carrier and with Rvx-208 (30 μM). The significant differences existing in the slope of the graph, and therefore in the growth dynamics of the treated cells are shown in the right panel (**p-value=0.0087). B) Image representing the untreated cell cultures and those treated with Rvx-208. Expression levels of proteins E-cadherin and vimentin in the presence and absence of Rvx-208. Analysis performed by means of quantitative PCR. The relative expression levels normalized with respect to the untreated control are shown. C) Migration and invasion assays in the presence of Rcx-208. FIG. 7. A) Proliferation curve in a viability assay carried out by means of XCELLigence technology. Growth of DLD1 cells treated with DMSO as the drug carrier and with Rvx-208 (30 μM). The significant differences existing in the slope of the graph, and therefore in the growth dynamics of the treated cells are shown in the right panel (****p-value<0.0001). B) Migration and invasion assays. The method followed was the same as the one described in FIG. 2 (*p-value=0.0407; ****p-value<0.0001). C) Expression levels of proteins E-cadherin and Vimentin in the presence and absence of Rvx-208. Analysis performed by means of quantitative PCR. The relative expression levels normalized with respect to the untreated control are shown. D) ABCA1, ApoA1, caveolin-1, and α-tubulin immunodetection by means of Western blot. α-tubulin acts as load control. The results of the cells treated with Rvx-208 (30 μM) or with the DMSO carrier are shown. E) Cholesterol flux in cells treated with Rvx-208. The same assays were repeated by replacing ApoA1 with a treatment with RVX-208. In this case, DLD1 cells were pre-treated for 72 hours before the start of the experiment with RVX-208 at a concentration of 30 μm and were subjected to a treatment with 15 μM of RVX-208 during the development of the experiments. […] The inventors were able to confirm said results based on the treatment of DLD1 cells expressing ABCA1 with RVX-208 under the conditions already described in detail in Example 3. In this case, the DLD1 cells overexpressing ABCA1 were pre-treated for 72 hours before the start of the experiment with RVX-208 at a concentration of 30 μm and were subjected to a treatment with 15 μM of RVX-208 during the development of the experiments. […] The levels of caveolin-1, a protein whose increased levels have been associated with increases in cell migration and invasion, were also analyzed in this experiment.

The subject of a further assay is vimentin. The description is as above. Particulars: RVX-208 30 μm 72 hours then 15 μM. The procedure:
as §1

Setting [1] is: DLD1 cells overexpressing ABCA1.

SMILES strings stand for the structures.

As to `COc1cc(OC)c2c(=O)[nH]c(-c3cc(C)c(OCCO)c(C)c3)nc2c1` [RVX-208, 2-(4-(2-hydroxyethoxy)-3,5-dimethylphenyl)-5,7-dimethoxyquinazolin-4(3H)-one], the migratory capacity entry with DLD1 cells is “significant decreases the migratory and invasive capacity”. Moreover, in the assay with DLD1_ABCA1 cells, the proliferative capacity result is on record as “significant decrease in proliferative capacity”. In addition, the E-cadherin expression levels entry with E-cadherin (DLD1 cells) and in the assay with E-cadherin (setting [1]) was “increase in E-cadherin expression levels” each time. For the same compound, the vimentin levels result in the assay with vimentin (DLD1 cells) and in the assay on vimentin (setting [1]) was “decrease in vimentin levels” each time.

(Values after US20200378993A1, “MEDICAL USES OF APOLIPOPROTEIN A AND ACTIVATORS THEREOF” (FUNDACIÓN IMDEA ALIMENTACIÓN, priority 2017, published 2020).)
